# In patent US11992010B2, “Use of 4-(phenylethynyl) benzoic acid” (China Jiliang University, priority 2022, dated 2024):
# Columns and labels:
# Arabidopsis seeds = test: Seed germination experiment on Arabidopsis; assay type: in vivo, Arabidopsis thaliana L. Columbia, Col-0 ecotype; settings: for Germination potential/% (48 h): control 45.31 ± 6.63; for Ultimate germination rate/%: control 88.32 ± 1.15
# Protocol: (§1) The seeds of Arabidopsis wild type (Arabidopsis thaliana L. Columbia, Col-0 ecotype) were provided by the lab of plant quality & safety biology in China Jiliang university. The commercial tomato seeds (Solanum lycopersicum CV. Zhefen 202) were provided by Zhejiang Academy of Agricultural Sciences.
# (§2) The 4-(Phenylethynyl) benzoic acid solutions were prepared as follows: 22.9 mg 4-(Phenylethynyl) benzoic acid was weighted and dissolved in 1 mL DMSO to make the 100 mM 4-(Phenylethynyl) benzoic acid mother solution. The working solutions applied were prepared by diluting the 4-(phenylethynyl) benzoic acid mother solution with water. For example, the 4-(Phenylethynyl) benzoic acid treatment solutions at the concentrations of 1 μM, 10 μM, and 50 μM were prepared by diluting 1 μL of the 100 mM 4-(phenylethynyl) benzoic acid mother solution to 100 mL, 10 mL, or 2 mL with water. DMSO was supplemented to a final concentration of 0.05% (V:V).
# (§3) 0.05% DMSO water solution then used as a control solution.
# Arabidopsis seeds were soaked in 4-(Phenylethynyl) benzoic acid treatment solutions at the concentrations of 1 μM, 10 μM, and 50 μM for 3 days under dark at 4° C., respectively. Seeds soaked in the 0.05% DMSO water solution were used as control. On the fourth day, Seeds were transformed to light at 25° C. in 2-cm-diameter Petri dishes with two layers of filter papers. Different concentrations of 4-(Phenylethynyl) benzoic acid treatment solutions were added as germination liquids. 0.05% DMSO water solution was used as control. 30-50 seeds were placed on the moist filter paper in a Petri dish. There were three replicates for each treatment. After germination for 30 h, 42 h, 48 h, and 66 h in a growth chamber (25° C.), the germination rate (the proportion of the total number of the seeds germinated corresponding to each time point after the start of the germination experiment to the total number of seeds to be tested) was calculated, respectively. The germination rate at 48 h was adopted as the germination potential (the proportion of the total number of the seeds germinated corresponding to 48 h after the start of the germination experiment to the total number of seeds to be tested).
# stomata of tomato leaves = test: Stomata closure in abaxial epidermal strips of tomato; assay type: cell-based, Solanum lycopersicum CV. Zhefen 202; settings: 50 μM, 3 hours, compared to the control
# Protocol: The commercial tomato seeds (Solanum lycopersicum CV. Zhefen 202) were provided by Zhejiang Academy of Agricultural Sciences.
# The concentration of 4-(Phenylethynyl) benzoic acid used in this example was 50 μM. Every 1 μL of the 100 mM 4-(Phenylethynyl) benzoic acid mother solution in Example 1 was diluted to 2 mL with MES-KCl buffer (10 mM MES, 50 mM KCl, pH 6.15). 0.5% Tween-80 (V:V) was added to increase the solubility and stability of 4-(Phenylethynyl) benzoic acid. The solution was mixed evenly by stirring efficiently and it was ensured that no 4-(phenylethynyl) benzoic acid was precipitated, and finally 50 μM 4-(phenylethynyl) benzoic acid was prepared.
# The control solution was the MES-KCl buffer containing 0.05% DMSO and 0.5% Tween-80.
# Abaxial epidermal strips of tomato were firstly peeled from washed leaves, then immersed in MES-KCl buffer (10 mM MES, 50 mM KCl, pH 6.15) under light at 28° C. to induce stomatal opening. After 2 hours, abaxial epidermal strips of tomato were treated with the control solution (MES-KCl buffer with 0.05% DMSO and 0.5% Tween-80) and 50 μM 4-(Phenylethynyl) benzoic acid treatment solution (MES-KCl buffer with 50 μM 4-(Phenylethynyl) benzoic acid, 0.05% DMSO and 0.5% Tween-80) for 3 hours, respectively. […] Widths and lengths of stomata were measured and the aperture ratios (width:length) were calculated. […]
# tomato seeds = test: Seed germination experiment on tomato; assay type: in vivo, Solanum lycopersicum CV. Zhefen 202; settings: 50 μM
# Protocol: as §1, §2, §3
# For tomato, 80 seeds were sowed on two layers of filter papers in a 6-cm-diameter Petri dish with germination liquids. 4-(Phenylethynyl) benzoic acid treatment solution at the concentration of 50 μM and 0.05% DMSO water solution (Control) were used as the germination liquids. There were three replicates for each treatment. After germination for 24 h, 36 h, 48 h, 60 h, 72 h, 84 h in a growth chamber (25° C.), the germination rate (the proportion of the total number of the seeds germinated corresponding to each time point after the start of the germination experiment to the total number of seeds to be tested) was calculated, respectively. The germination rate at 48 h was adopted as the germination potential (the proportion of the total number of the seeds germinated corresponding to 48 h after the start of the germination experiment to the total number of seeds to be tested).
# rice radicle = test: Rice radicle elongation; assay type: in vivo, Oryza sativa L. Datian Nip
# Protocol: Rice cultivar (Oryza sativa L. Datian Nip) was provided by Zhejiang Academy of Agricultural Sciences.
# Every 1 μL 4-(Phenylethynyl) benzoic acid mother solution in Example 1 was diluted with water to 2 mL or 500 μL to prepare 50 μM or 200 μM 4-(Phenylethynyl) benzoic acid treatment solutions. 0.05% DMSO water solution was used as the control solution for 50 μM 4-(Phenylethynyl) benzoic acid treatment solution and 0.2% DMSO water solution was used as the control solution for 200 μM 4-(Phenylethynyl) benzoic acid treatment solution respectively.
# A volume of 10 ml 4-(Phenylethynyl) benzoic acid treatment solutions at various concentrations were added to 9-cm-diameter Petri dishes with two layers of filter papers. 100 seeds were placed on the moist filter paper in a Petri dish. 0.05% DMSO water solution was used as control for 50 μM 4-(Phenylethynyl) benzoic acid treatment solution. 0.2% DMSO water solution was used as control for 200 μM 4-(Phenylethynyl) benzoic acid treatment solution. There were three replicates for each treatment. Seeds were germinated under light at 28° C. The seeds that germinated between the second and the third day after imbibition were chosen and their radicle length were measured on the fifth day.
compound,measurement,setting,value
O=C(O)c1ccc(C#Cc2ccccc2)cc1 [4-(Phenylethynyl) benzoic acid],germination of Arabidopsis seeds (in words),"Arabidopsis seeds; 10 μM and 50 μM, 50 μM exhibited a stronger effect",significantly slowed down the germination
same,Germination potential/% (48 h),"Arabidopsis seeds; Arabidopsis, 1 μM",37.50 ± 7.50 a %
same,Ultimate germination rate/%,"Arabidopsis seeds; Arabidopsis, 1 μM",92.33 ± 0.29 a %
same,decrease in germination potential,"Arabidopsis seeds; Arabidopsis, 10 μM",> 20%
same,Germination potential/% (48 h),"Arabidopsis seeds; Arabidopsis, 10 μM",14.53 ± 6.40 b %
same,Ultimate germination rate/%,"Arabidopsis seeds; Arabidopsis, 10 μM",85.24 ± 7.41 a %
same,germination rate reduction ultimately,"Arabidopsis seeds; Arabidopsis, 50 μM",> 80%
same,Ultimate germination rate/%,"Arabidopsis seeds; Arabidopsis, 50 μM",2.30 ± 3.98 b %
same,aperture ratio (width:length) (in words),stomata of tomato leaves,significantly reduced
same,stomata aperture (in words),stomata of tomato leaves,significantly reduced
same,tomato seeds germination (in words),tomato seeds; compared to the control,significantly inhibited the germination process and reduced the germination rate
same,Germination potential/% (48 h),"tomato seeds; Tomato, 48 h, control 20.83 ± 1.90",0.00 ± 0.00 b %
same,Ultimate germination rate/%,"tomato seeds; Tomato, control 88.75 ± 6.25",10.41 ± 2.88 b %
same,rice radicle elongation (in words),"rice radicle; 50 μM and 200 μM, relative to their controls, 200 μM significantly better than 50 μM",significantly inhibited rice radicle elongation
same,activity at 50 µM,"rice radicle; Oryza sativa, rice, 50 μM, control 0.05% DMSO, read-out: radicle length, % of control treatment",48.2%
same,activity at 200 µM,"rice radicle; Oryza sativa, rice, 200 μM, control 0.2% DMSO, read-out: radicle length, % of control treatment",20.3%
